According to ChEMBL document CHEMBL6127032, “Progress of ATM inhibitors: Opportunities and challenges” (Eur J Med Chem, 2024):
Values after ≈ are worked out from the molar mass of the structure shown.

Legend:
[1] = biological target: T1, Serine-protein kinase ATM (Homo sapiens, UniProt Q13315); experiment: Inhibition of ATM (unknown origin)
[2] = biological target: Serine/threonine-protein kinase mTOR (Homo sapiens, UniProt P42345); experiment: Inhibition of mTOR (unknown origin)
[3] = Inhibition of DNA-PK (unknown origin); parameters: species or system Homo sapiens
[4] = biological target: Serine/threonine-protein kinase ATR (Homo sapiens, UniProt Q13535); experiment: Inhibition of ATR (unknown origin)
[5] = Inhibition of PI3K (unknown origin); parameters: species or system Homo sapiens
[6] = biological target: T1, Serine-protein kinase ATM; experiment: Inhibition of ATM in human HeLa cells; format: cell-based
[7] = Inhibition of PI4K (unknown origin); parameters: species or system Homo sapiens
[8] = Solubility of compound in PBS buffer; format: physicochemical
U2OS = experiment: cells; settings: Homo sapiens
[9] = Oral bioavailability in human; format: ADME, organism-based; settings: in vivo

T1 sequence (Q13315 whole entry): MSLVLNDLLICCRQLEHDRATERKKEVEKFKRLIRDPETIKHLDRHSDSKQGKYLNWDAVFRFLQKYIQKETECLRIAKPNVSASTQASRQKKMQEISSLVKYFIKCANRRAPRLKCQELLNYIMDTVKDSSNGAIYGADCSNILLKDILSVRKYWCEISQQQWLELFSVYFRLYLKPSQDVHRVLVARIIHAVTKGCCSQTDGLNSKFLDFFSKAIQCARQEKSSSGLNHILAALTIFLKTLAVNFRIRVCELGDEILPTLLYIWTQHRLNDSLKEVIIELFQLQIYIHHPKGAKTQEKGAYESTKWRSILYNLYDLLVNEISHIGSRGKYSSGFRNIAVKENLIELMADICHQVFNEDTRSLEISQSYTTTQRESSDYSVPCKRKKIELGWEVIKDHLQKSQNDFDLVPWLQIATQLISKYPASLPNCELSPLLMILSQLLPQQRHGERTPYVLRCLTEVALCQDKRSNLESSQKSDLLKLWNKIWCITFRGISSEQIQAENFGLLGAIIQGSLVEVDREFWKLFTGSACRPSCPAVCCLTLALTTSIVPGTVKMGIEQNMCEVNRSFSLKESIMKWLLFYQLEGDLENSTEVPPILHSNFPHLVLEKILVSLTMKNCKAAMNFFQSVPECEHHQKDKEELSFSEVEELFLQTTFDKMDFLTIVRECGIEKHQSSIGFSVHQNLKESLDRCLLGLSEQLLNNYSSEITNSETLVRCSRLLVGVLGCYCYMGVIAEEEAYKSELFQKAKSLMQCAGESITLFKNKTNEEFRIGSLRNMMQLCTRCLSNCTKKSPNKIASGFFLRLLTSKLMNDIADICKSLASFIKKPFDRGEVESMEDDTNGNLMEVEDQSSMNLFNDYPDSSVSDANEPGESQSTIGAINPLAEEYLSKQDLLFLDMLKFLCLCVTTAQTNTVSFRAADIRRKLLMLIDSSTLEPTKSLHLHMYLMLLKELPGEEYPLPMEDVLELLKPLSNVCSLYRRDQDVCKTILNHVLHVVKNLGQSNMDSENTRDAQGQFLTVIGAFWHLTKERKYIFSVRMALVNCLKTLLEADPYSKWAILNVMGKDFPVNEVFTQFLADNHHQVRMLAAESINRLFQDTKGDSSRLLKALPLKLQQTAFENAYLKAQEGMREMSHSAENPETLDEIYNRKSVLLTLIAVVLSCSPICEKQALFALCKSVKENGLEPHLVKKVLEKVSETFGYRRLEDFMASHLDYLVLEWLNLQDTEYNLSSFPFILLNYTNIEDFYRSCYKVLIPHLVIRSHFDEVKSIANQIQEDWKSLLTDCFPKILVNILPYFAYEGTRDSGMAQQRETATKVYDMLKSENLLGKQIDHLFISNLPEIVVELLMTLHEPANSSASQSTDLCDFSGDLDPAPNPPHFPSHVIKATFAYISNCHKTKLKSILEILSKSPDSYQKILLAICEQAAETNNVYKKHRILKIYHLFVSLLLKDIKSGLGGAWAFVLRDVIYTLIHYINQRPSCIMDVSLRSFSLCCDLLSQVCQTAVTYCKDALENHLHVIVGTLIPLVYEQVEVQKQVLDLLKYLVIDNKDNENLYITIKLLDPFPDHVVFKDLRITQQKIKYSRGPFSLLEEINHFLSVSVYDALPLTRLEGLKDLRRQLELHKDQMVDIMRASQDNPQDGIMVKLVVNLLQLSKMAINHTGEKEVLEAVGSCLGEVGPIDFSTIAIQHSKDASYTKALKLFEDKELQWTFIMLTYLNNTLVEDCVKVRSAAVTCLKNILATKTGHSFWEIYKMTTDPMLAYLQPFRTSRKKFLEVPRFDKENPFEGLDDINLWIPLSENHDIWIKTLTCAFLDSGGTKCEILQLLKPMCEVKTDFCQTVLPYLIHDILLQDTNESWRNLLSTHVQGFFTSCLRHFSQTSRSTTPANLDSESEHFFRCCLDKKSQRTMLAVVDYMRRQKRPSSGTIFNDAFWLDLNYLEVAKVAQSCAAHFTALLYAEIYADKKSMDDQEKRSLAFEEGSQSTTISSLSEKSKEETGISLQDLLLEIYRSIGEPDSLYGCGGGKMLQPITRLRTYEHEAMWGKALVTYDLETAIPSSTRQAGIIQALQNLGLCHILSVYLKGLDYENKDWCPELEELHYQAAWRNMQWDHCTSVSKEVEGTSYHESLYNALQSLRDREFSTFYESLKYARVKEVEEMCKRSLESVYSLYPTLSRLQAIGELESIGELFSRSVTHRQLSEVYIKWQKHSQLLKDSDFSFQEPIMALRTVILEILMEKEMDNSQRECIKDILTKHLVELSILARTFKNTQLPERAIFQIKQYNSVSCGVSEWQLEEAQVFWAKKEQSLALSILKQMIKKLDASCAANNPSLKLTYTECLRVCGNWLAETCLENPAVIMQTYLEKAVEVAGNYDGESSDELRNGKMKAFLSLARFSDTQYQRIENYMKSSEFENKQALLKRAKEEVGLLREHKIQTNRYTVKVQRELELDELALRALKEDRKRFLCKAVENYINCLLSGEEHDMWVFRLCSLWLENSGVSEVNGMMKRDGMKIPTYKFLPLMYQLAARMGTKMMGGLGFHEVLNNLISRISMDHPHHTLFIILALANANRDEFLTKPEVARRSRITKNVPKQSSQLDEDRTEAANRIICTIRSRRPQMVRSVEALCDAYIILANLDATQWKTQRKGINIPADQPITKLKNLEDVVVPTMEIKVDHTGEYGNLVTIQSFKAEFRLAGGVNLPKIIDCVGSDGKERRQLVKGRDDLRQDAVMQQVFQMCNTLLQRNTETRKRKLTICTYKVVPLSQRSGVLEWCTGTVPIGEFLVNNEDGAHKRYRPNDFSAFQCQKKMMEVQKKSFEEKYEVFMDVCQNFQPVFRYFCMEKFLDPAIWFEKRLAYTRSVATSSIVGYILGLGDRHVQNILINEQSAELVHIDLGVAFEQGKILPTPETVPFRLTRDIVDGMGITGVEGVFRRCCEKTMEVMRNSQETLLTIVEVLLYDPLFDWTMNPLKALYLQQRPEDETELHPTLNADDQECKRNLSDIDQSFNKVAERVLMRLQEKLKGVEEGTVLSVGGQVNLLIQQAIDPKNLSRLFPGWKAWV

CC(C)n1c(=O)n(C)c2cnc3cc(F)c(-c4ccc(OCCCN5CCCCC5)nc4)cc3c21 [AZD-1390]
IC50 [1]: 7.8 nM

CN1CCN(CCC(=O)Nc2ccc3c(c2)Sc2cccc(-c4cc(=O)cc(N5CCOCC5)o4)c2S3)CC1
IC50 [2]: > 10000 nM
IC50 [3]: 9100 nM
IC50 [4]: > 100000 nM
IC50 [5]: 10000 nM
IC50 [6]: 13 nM
IC50 [7]: > 100000 nM

COc1cc2ncc3c(c2cc1-c1cn(C)nc1C)n(-c1c(F)cncc1OC)c(=O)n3C [LARTESERTIB]
IC50 [3]: 600 nM
solubility [8]: 93 µg/mL (≈ 207 µM)

O=c1cc(N2CCOCC2)cc(N2CCCCC[C@@H]2Cc2ccccc2)[nH]1
IC50 (U2OS): 230 nM

C[C@@H]1CN(CC(=O)Nc2ccc3c(c2)Cc2cccc(-c4cc(=O)cc(N5CCOCC5)o4)c2S3)C[C@H](C)O1
bioavailability [9]: 37%
